# Reference: patent US4902690A, “Pest controlling compositions” (The General Hospital Corporation, priority 1988, dated 1990)
# What was measured:
# [1] = test system: PDE in tissue homogenate from tobacco hornworm nerve cord; assay: Cyclic AMP analogue remaining after incubation with nerve cord homogenate; assay type: in vitro ADME, tobacco hornworm (Manducca sexta); conditions: IBMX 0.1 mM; 4 hours in vitro; FIG. 20
# Description: It has been previously shown, above, that PDE inhibition can increase the concentration of cyclic AMP in insect tissue. […] In order to do this, a fixed amount of butyl-benzylthio cyclic AMP was incubated in vitro for 4 hours in the presence of a tissue homogenate from tobacco hornworm nerve cord. In some tubes, IBMX (0.1 mM) was added to inhibit PDE. After the incubation, the amount of butyl-benzylthio cyclic AMP remaining was measured by protein binding assay (Brown et al., supra), using a standard curve based upon butyl-benzylthio cyclic AMP.
# [2] = test system: tobacco hornworms (Manducca sexta); assay: In vivo leaf test (feeding on sprayed tomato leaves)
# [3] = test system: Firefly phosphodiesterase enzyme; assay: PDE inhibitory activity, firefly lantern; assay type: biochemical, firefly (Photinus pyralis)
# Text: (§1) The ability of any compound (A) to inhibit phosphodiesterase (PDE) activity in broken cell preparations of firefly lantern or in pest tissues can be determined either (1) by measuring the decrease in rate of hydrolysis of an added amount of cyclic AMP by PDE (see Methods Section of Nathanson et al., Mol. Pharmacol. 12:390-398 (1975)), or (2) by measuring the rate of accumulation of one of the breakdown products of cyclic AMP, such as 5'-AMP or adenosine (see method of Filburn et al., Anal. Biochem. 52:505-516 (1973)). Both of these are herein incorporated by reference.
# Generally, any compound capable of maximally inhibiting PDE activity by at least 50% (Vmax -inhibition) and preferably by at least 80% is preferred. Also, in terms of the concentration of the compound required for such inhibition, this can be quantitated by determining the IC 50-inhibition, i.e., the concentration of the compound required to cause 50% of the maximal inhibitioncaused by the compound at any concentration.
# (§2) In this assay (modified slightly from Filburn and Karn (Analyt. Biochem. 52: 505-516 (1973)), the rate of hydrolysis of labeled cyclic AMP to 5'-AMP by PDE is measured by converting the breakdown product (5'-AMP) to adenosine, which can be separated and measured by alumina chromatography. Specifically, tissue from either the firefly lantern or pest is homogenized (10-20 mg/ml) in 6 mM Tris-maleate buffer, pH 7.4. The hydrolysis reaction is run in test tubes containing (in 100 microliters): 80 mM Tris maleate, pH 7.4; 6 mM MgSO4; 10 pmoles tritiated cyclic AMP (2×10^4 to 2×10^5 cpm, depending upon the activity of the enzyme); 20 microliters of tissue homogenate; and various concentrations of the compound to be tested. In those cases in which the compound is insoluble in aqueous solution at pH 7.4, pH can be varied between pH 6.5 and 9.0 for optimization of solubility. In addition, the test compound can be initially solubilized in either 100% methanol or DMSO and diluted to a final concentration of 10% methanol or DMSO in the assay (in which case solvent controls are run in parallel).
# The reaction is started by the addition of homogenate, run for 4 min at 37° C., and terminated by boiling for 90 sec. The 5'AMP formed is then converted to adenosine by the addition of 20 microliters of an aqueous solution of 0.5 Units/ml of 5'-nucleotidase (Sigma, Grade IV), vortexed, and incubated for 30 minutes at 37° C. The second reaction is stopped by addition of 0.4 ml of 0.1N ammonium acetate, pH 4.0. The entire sample is then applied to a 0.5×8 cm column containing neutral alumina prewashed with 20 ml of 0.1N ammonium acetate, pH 4.0. The void volume is discarded and the column is then eluted with 2 ml of 0.1N ammonium acetate, pH 4.0, the eluent collected and counted by liquid scintillation spectrometry. Activity is cpms above that due to a blank which was initially incubated for 0 seconds in the first reaction.
# [4] = Level of PDE inhibitor compound in insects in vivo; parameters: species or system tobacco hornworms; conditions: feeding 72 hours on tomato leaves treated with a 1% spray of theophylline; read-out: internal concentration within the insects
# Description: To determine this, tobacco hornworms were allowed to feed on tomato leaves treated with a 1% spray of theophylline. This concentration was chosen since it is an amount which, by itself, inhibits feeding in the tobacco hornworm (see FIG. 13). After 72 hours, worms (alive or dead) were removed, quickly rinsed of any compound adhering to their outside cuticle, and then homogenized. The homogenate was centrifuged at 2000×g for 5 minutes and the supernatant was assayed for theophylline concentration by a standard immunoenzymatic procedure (Emit-aad® Theophylline Assay, Syva Company, Palo Alto, Calif.). By this procedure, the internal concentration within the insects was determined to be 4.0 mM. From FIGS. 6,7 or 8 it will be seen that this concentration of theophylline is sufficient to cause at least 70% inhibition of PDE enzyme activity in vitro. The correspondence between in vitro and in vivo results is remarkably close and serves to further support the invention.
# [5] = test system: phosphodiesterase enzyme of hornworm nerve cord; assay: PDE inhibitory activity, hornworm nerve tissue; assay type: biochemical, tobacco hornworm (Manducca sexta); conditions: FIG. 8
# Text: as §1, §2
# The reaction is started by the addition of homogenate, run for 4 min at 37° C., and terminated by boiling for 90 sec. […] The void volume is discarded and the column is then eluted with 2 ml of 0.1N ammonium acetate, pH 4.0, the eluent collected and counted by liquid scintillation spectrometry. […]
smiles,measurement,setting,value
"CCCCNc1ncnc2c1nc(SCc1ccccc1)n2[C@@H]1O[C@@H]2COP(=O)(O)O[C@H]2[C@H]1O [n-butylaminobenzylthio cyclic AMP, 6-n-butylamino-8-benzylthio-cyclic AMP]","amount of butyl-benzylthio cyclic AMP present after 4 hours, effect of addition of IBMX",[1],more than doubled
same,antifeeding activity in the absence of IBMX,"[2]; concentration of 1%, FIGS. 18, 19",some antifeeding activity
Cn1c(=O)c2[nH]cnc2n(C)c1=O [theophylline],phosphodiesterase inhibition,[3]; FIG. 6,active as phosphodiesterase inhibitors
same,inhibition of PDE enzyme activity in vitro,"[3]; theophylline 4.0 mM, read from FIGS. 6,7 or 8 (firefly or hornworm)",at least 70%
same,concentration,[4],4000 µM
same,pattern of PDE inhibition,[5],quite similar to that in the firefly light organ
same,% Leaf Remaining (increase over control),[2]; 1% Theophylline alone,11%
